Measurements: patent US10954231B2, “Anxiolytic compounds” (Bionomics Limited, priority 2006, dated 2021)

Columns and labels:
Type in all cases: in vivo
[1] = system: mice; assay: Light dark test; conditions: oral, 60 min before test; for LD: significant anxiolytic effect (number of significant parameters): parameters: time spent in lit area, transitions into lit area, total walked distance in lit area; for minimal effective dose at 20 mg/kg: Mus musculus, 1 h, for examples marked * 20 mg/kg is the only dose tested, read-out: LD: minimum effective dose
From the text: The light dark paradigm is based on a conflict between the innate aversion of rodents to brightly illuminated areas and on the spontaneous exploratory behaviour of the mice. If given a choice between a large brightly compartment versus a small dark compartment they spontaneously prefer the dark part.
The apparatus consists of two PVC (polyvinylchloride) boxes (19×19×15 cm) covered with Plexiglas. One of these boxes is darkened. The other box is illuminated by 100 W desk lamp placed 15 cm above and providing an illumination of about 4400 Lux. An opaque plastic tunnel (5×7×10 cm) separates the dark box from the illuminated one.
Animals were placed individually in the lit box, with head directed towards the tunnel. The time spent in the lit box and the number of transitions between the two boxes was recorded over a 5 min period after the first entry of the animal in the dark box. The total walked distance in the lit box was also recorded. Animals scored without entry into the […] were excluded from the analysis.
The compounds in Table 1 were tested in the light-dark test (indicated in the LD column). +=a significant anxiolytic effect in one of the three parameters measured in the LD model, ++ represents a significant effect in 2 parameters and +++ is significance in all three. The parameters are: time spent in the lit area, number of transitions into the lit area, or total walked distance in the lit area.
The test compound was prepared in 5% PEG400-0.9% NaCl.
(§1) It was administrated orally, 60 minutes before the implementation of the test.

[2] = system: mice; assay: Open field (dark), spontaneous motor activity; set-up: key to OF: sedation: NS: no sedation; S: sedation; conditions: oral, 60 min before test; for OF: sedation: 20 min recording; for OF: maximum non-sedating dose: for examples marked * 20 mg/kg is the only dose tested
From the text: The open field (dark) is used to measure the spontaneous motor activity of mice in a quiet, dark environment. This system is useful for discriminating the sedating or stimulating properties of test compounds on spontaneous locomotion and can thus provide a preliminary indication of potentially adverse effects such as sedation.
The apparatus is an open plexiglass cage (52×52 cm) with 40 cm walls. The animal's movements are tracked by a computerised video tracking system, consisting of an overhead camera, diode sensors placed underneath the floor of the cage, computer and video analyser software (ViewPoint, France). The video camera is placed at 2.50 m above the cage and connected to the computer via a video capture card (Pinnacle Systems, France). The video tracking system is set in a way that the floor of the OF is divided into nine equal squares. The total number of crossed squares and the total walked distance are recorded.
Each animal is singly placed in a corner of the apparatus and its locomotor activity is automatically recorded over a period of 20 minutes.
The apparatus is cleaned between each animal with alcohol (70%).
The below items were tested in the Open Field as indicated by an entry in the OF column. NS=no sedation; S=sedation. The maximum non-sedating dose in mg/kg is shown.
Test compound was prepared in 5% PEG400−0.9% NaCl. It was administered orally, 60 minutes before the implementation of the test.

[3] = system: rat; assay: Elevated plus maze; set-up: key to EPM rat: significant anxiolytic effect (number of significant parameters): +: a significant anxiolytic effect in one of the three parameters measured in the LD model; ++: represents a significant effect in 2 parameters; +++: is significance in all three; conditions: oral, 60 min before test
[4] = system: mice; assay: Marble burying test; conditions: oral, 60 min before test, 20 min session
From the text: The Marble Burying test is used as a model for both anxiety and obsessive compulsive disorders. Mice have a natural tendency to bury marbles under the bedding when placed in a cage with rows of evenly spaced marbles on the floor. Suppression of this spontaneous burying has been used as a measure of anxiolytic drug action. Mice pre-treated with benzodiazepines and different classes of antidepressants bury less marbles when compared to the control mice
The apparatus consists of transparent polycarbonate cages (30 cm×18 cm×19 cm) containing a 5 cm layer of fine sawdust bedding and 20 glass marbles (diameter: 1.5 cm) spaced evenly along the walls of the cage. Each animal is placed individually in the cage where it remains for a 20 min test session. On termination of the test session the animals are removed from the cage and the number of marbles at least two-thirds buried in the sawdust is recorded.
Example 1 was tested in the Marble Burying model. The minimum effective dose in mg/kg is indicated in the MB column in Table 1.
The test compound was prepared in 5% PEG400−0.9% NaCl.
as §1

CCn1cc(C(=O)N2CCOCC2)c(=O)c2cc(NC3Cc4ccccc4C3)cnc21 [Example 1, Morpholino 6-(2,3-dihydro-1H-inden-2-yl)amino-1-ethyl-1,4-dihydro-4-oxo-1,8-naphthyridine-3-carboxamide]
LD: significant anxiolytic effect (number of significant parameters) [1]: ++
OF: sedation [2]: NS
OF: maximum non-sedating dose [2]: 100 mg/kg
EPM rat: minimum effective dose [3]: 0.1 mg/kg
EPM rat: significant anxiolytic effect (number of significant parameters) ([3]; parameters: time spent in open arms, transitions into open arms, total walked distance in open arms): +++
MB: minimum effective dose [4]: 1 mg/kg

CCn1cc(C(=O)N2CCOCC2)c(=O)c2nc(NC3Cc4ccccc4C3)ccc21 [Example 2, Morpholino 6-(2,3-dihydro-1H-inden-2-ylamino)-1-ethyl-1,4-dihydro-4-oxo-1,5-naphthyridine-3-carboxamide]
minimal effective dose at 20 mg/kg [1]: 30 mg/kg
LD: significant anxiolytic effect (number of significant parameters) [1]: +++
OF: sedation [2]: S
OF: maximum non-sedating dose [2]: 5 mg/kg

CCn1cc(C(=O)N2CCOCC2)c(=O)c2cc(NC3Cc4ccccc4C3)ncc21 [Example 3, morpholino 6-(2,3-dihydro-1H-inden-2-ylamino)-1-ethyl-1,4-dihydro-4-oxo-1,7-naphthyridine-3-carboxamide]
LD: significant anxiolytic effect (number of significant parameters) [1]: ++

CCn1cc(C(=O)N2CCN(C)CC2)c(=O)c2cc(NC3Cc4ccccc4C3)cnc21 [Example 4, Methylpiperazino 6-(2,3-dihydro-1H-inden-2-ylamino)-1-ethyl-1,4-dihydro-4-oxo-1,8-naphthyridine-3-carboxamide]
minimal effective dose at 20 mg/kg [1]: 20 mg/kg
LD: significant anxiolytic effect (number of significant parameters) [1]: ++

CCn1cc(C(=O)NC2CC2)c(=O)c2cc(NC3Cc4ccccc4C3)cnc21 [Example 5, Cyclopropylamino 6-(2,3-dihydro-1H-inden-2-ylamino)-1-ethyl-1,4-dihydro-4-oxo-1,8-naphthyridine-3-carboxamide]
minimal effective dose at 20 mg/kg [1]: 20 mg/kg
LD: significant anxiolytic effect (number of significant parameters) [1]: +

CCN(CC)C(=O)c1cn(CC)c2ncc(NC3Cc4ccccc4C3)cc2c1=O [Example 6]
minimal effective dose at 20 mg/kg [1]: 20 mg/kg
LD: significant anxiolytic effect (number of significant parameters) [1]: ++
OF: sedation [2]: NS
OF: maximum non-sedating dose [2]: 20 mg/kg

CCOC(=O)c1cn(CC)c2ncc(NC(=O)c3cc(OC)c(OC)c(OC)c3)cc2c1=O [Example 7, Ethyl 6-(3,4,5-trimethoxybenzoylamide)-1-ethyl-1,4-dihydro-4-oxo-1,8-naphthyridine-3-carboxylate]
minimal effective dose at 20 mg/kg [1]: 20 mg/kg
LD: significant anxiolytic effect (number of significant parameters) [1]: ++
OF: sedation [2]: S
OF: maximum non-sedating dose [2]: 20 mg/kg

CCn1cc(C(=O)Nc2ccc(F)cc2)c(=O)c2cc(NC3Cc4ccccc4C3)cnc21 [Example 8]
minimal effective dose at 20 mg/kg [1]: 20 mg/kg
LD: significant anxiolytic effect (number of significant parameters) [1]: ++
OF: sedation [2]: NS
OF: maximum non-sedating dose [2]: 20 mg/kg

CCn1cc(C(=O)Nc2ccc(-c3ccccc3)cc2)c(=O)c2cc(NC3Cc4ccccc4C3)cnc21 [Example 9, 4-biphenylamino-6-(2,3-dihydro-1H-inden-2-ylamino)-1-ethyl-1,4-dihydro-4-oxo-1,8-naphthyridine-3-carboxamide]
minimal effective dose at 20 mg/kg [1]: 20 mg/kg
LD: significant anxiolytic effect (number of significant parameters) [1]: +++
OF: sedation [2]: NS
OF: maximum non-sedating dose [2]: 20 mg/kg

CCOC(=O)c1cn(CC)c2ncc(NC(=O)C(C)C)cc2c1=O [Example 10, Ethyl 6-(isobutyrylamide)-1-ethyl-1,4-dihydro-4-oxo-1,8-naphthyridine-3-carboxylate]
minimal effective dose at 20 mg/kg [1]: 20 mg/kg
LD: significant anxiolytic effect (number of significant parameters) [1]: +++
OF: sedation [2]: NS
OF: maximum non-sedating dose [2]: 20 mg/kg
